Target: GABAA receptor (TBPS binding site), rat brain cortical membranes
Assay: [35S]-TBPS binding assay, rat brain cortical membranes in the presence of 5 mM GABA
Conditions: inhibition of 3 nM [35S]-TBPS binding
Experimental: [^35S]-t-Butylbicyclophosphorothionate (TBPS) binding assays using rat brain cortical membranes in the presence of 5 mM GABA has been described (Gee et al, J. Pharmacol. Exp. Ther. 1987, 241, 346-353; Hawkinson et al, Mol. Pharmacol. 1994, 46, 977-985; Lewin, A. H et al., Mol. Pharmacol. 1989, 35, 189-194).
Briefly, cortices are rapidly removed following decapitation of carbon dioxide-anesthetized Sprague-Dawley rats (200-250 g). The cortices are homogenized in 10 volumes of ice-cold 0.32 M sucrose using a glass/teflon homogenizer and centrifuged at 1500×g for 10 min at 4° C. The resultant supernatants are centrifuged at 10,000×g for 20 min at 4° C. to obtain the P2 pellets. The P2 pellets are resuspended in 200 mM NaCl/50 mM Na—K phosphate pH 7.4 buffer and centrifuged at 10,000×g for 10 min at 4° C. This washing procedure is repeated twice and the pellets are resuspended in 10 volumes of buffer. Aliquots ([…]) of the membrane suspensions are incubated with 3 nM [^35S]-TBPS and […] aliquots of test drug dissolved in dimethyl sulfoxide (DMSO) (final 0.5%) in the presence of 5 mM GABA. The incubation is brought to a final volume of 1.0 mL with buffer. Nonspecific binding is determined in the presence of […] and ranged from 15 to 25%. Following a 90 min incubation at room temp, the assays are terminated by filtration through glass fiber filters (Schleicher and Schuell No. 32) using a cell harvester (Brandel) and rinsed three times with ice-cold buffer. Filter bound radioactivity is measured by liquid scintillation spectrometry. Non-linear curve fitting of the overall data for each drug averaged for each concentration is done using Prism (GraphPad). […] The concentration of test compound producing 50% inhibition (IC50) of specific binding and the maximal extent of inhibition (Imax) are determined for the individual experiments with the same model used for the overall data and then the means±SEM.s of the individual experiments are calculated.
Various compounds are or can be screened to determine their potential as modulators of [^35S]-TBPS binding in vitro. These assays are or can be performed in accordance with the above

| Compound | IC50 |
| --- | --- |
| CCOC[C@@]1(O)CC[C@H]2[C@H](CC[C@@H]3[C@@H]2CC[C@]2(C)[C@@H](C(=O)Nc4cccc(C#N)n4)CC[C@@H]32)C1 [Example 60] | < 100 nM |
| Cc1nc2n(c1NC(=O)[C@H]1CC[C@H]3[C@@H]4CC[C@@H]5C[C@](C)(O)CC[C@@H]5[C@H]4CC[C@]13C)CCCC2 [Example 13, (3R,5R,8R,9R,10S,13S,14S,17S)-3-hydroxy-3,13-dimethyl-N-(2-methyl-5,6,7,8-tetrahydroimidazo[1,2-a]pyridin-3-yl)hexadecahydro-1H-cyclopenta[a]phenanthrene-17-carboxamide] | 100 to 1000 nM |
| COC[C@@]1(O)CC[C@H]2[C@@H](CC[C@@H]3[C@@H]2CC[C@]2(C)[C@@H](C(=O)Nc4cccc(C)n4)CC[C@@H]32)C1 [Example 7, (3R,5S,8R,9R,10S,13S,14S,17S)-3-hydroxy-3-(methoxymethyl)-13-methyl-N-(6-methylpyridin-2-yl)hexadecahydro-1H-cyclopenta[a]phenanthrene-17-carboxamide] | < 100 nM |
| CCOC[C@@]1(O)CC[C@@]2(CC)[C@H](CC[C@H]3[C@@H]4CC[C@H](C(=O)Nc5cnc(C#N)cn5)[C@@]4(C)CC[C@@H]32)C1 [Example 11, (3R,5R,8S,9S,10S,13S,14S,17S)-N-(5-cyanopyrazin-2-yl)-3-(ethoxymethyl)-10-ethyl-3-hydroxy-13-methylhexadecahydro-1H-cyclopenta[a]phenanthrene-17-carboxamide] | < 100 nM |
| COC[C@@]1(O)CC[C@H]2[C@H](CC[C@@H]3[C@@H]2CC[C@]2(C)[C@@H](C(=O)Nc4ccc(C)nc4)CC[C@@H]32)C1 [Example 40] | < 100 nM |
| CCOC[C@@]1(O)CC[C@H]2[C@H](CC[C@@H]3[C@@H]2CC[C@]2(C)[C@@H](C(=O)Nc4cc(C)nn4C)CC[C@@H]32)C1 [Example 30] | < 100 nM |
| CCOC[C@@]1(O)CC[C@H]2[C@H](CC[C@@H]3[C@@H]2CC[C@]2(C)[C@@H](C(=O)Nc4ccccn4)CC[C@@H]32)C1 [Example 20] | < 100 nM |
| COC[C@@]1(O)CC[C@H]2[C@H](CC[C@@H]3[C@@H]2CC[C@]2(C)[C@@H](C(=O)Nc4ncccc4Cl)CC[C@@H]32)C1 [Example 39] | 100 to 1000 nM |
| CCOC[C@@]1(O)CC[C@H]2[C@H](CC[C@@H]3[C@@H]2CC[C@]2(C)[C@@H](C(=O)Nc4cnc(C#N)cn4)CC[C@@H]32)C1 [Example 28] | < 100 nM |
| COC[C@@]1(O)CC[C@H]2[C@H](CC[C@@H]3[C@@H]2CC[C@]2(C)[C@@H](C(=O)Nc4ccc(-n5ccc(C)n5)nc4C)CC[C@@H]32)C1 [Example 52] | < 100 nM |
| CCOC[C@@]1(O)CC[C@H]2[C@H](CC[C@@H]3[C@@H]2CC[C@]2(C)[C@@H](C(=O)Nc4ccnn4C4CCCC4)CC[C@@H]32)C1 [Example 55] | < 100 nM |
| CCOC[C@@]1(O)CC[C@H]2[C@H](CC[C@@H]3[C@@H]2CC[C@]2(C)[C@@H](C(=O)Nc4ncc(C#N)cc4Cl)CC[C@@H]32)C1 [Example 26] | < 100 nM |
| CCOC[C@@]1(O)CC[C@H]2[C@H](CC[C@@H]3[C@@H]2CC[C@]2(C)[C@@H](C(=O)Nc4ccc(C#N)cn4)CC[C@@H]32)C1 [Example 22] | < 100 nM |
| CCOC[C@@]1(O)CC[C@H]2[C@H](CC[C@@H]3[C@@H]2CC[C@]2(C)[C@@H](C(=O)Nc4cncc(C)n4)CC[C@@H]32)C1 [Example 24] | < 100 nM |
| CCOC[C@@]1(O)CC[C@H]2[C@H](CC[C@@H]3[C@@H]2CC[C@]2(C)[C@@H](C(=O)Nc4ccncc4)CC[C@@H]32)C1 [Example 1, (3R,5R,8R,9R,10S,13S,14S,17S)-3-(ethoxymethyl)-3-hydroxy-13-methyl-N-(pyridin-4-yl)hexadecahydro-1H-cyclopenta[a]phenanthrene-17-carboxamide] | < 100 nM |
| CCOC[C@@]1(O)CC[C@@]2(CC)[C@H](CC[C@H]3[C@@H]4CC[C@H](C(=O)Nc5cc(C)nn5C)[C@@]4(C)CC[C@@H]32)C1 [Example 8, (3R,5R,8S,9S,10S,13S,14S,17S)-N-(1,3-dimethyl-1H-pyrazol-5-yl)-3-(ethoxymethyl)-10-ethyl-3-hydroxy-13-methylhexadecahydro-1H-cyclopenta[a]phenanthrene-17-carboxamide] | < 100 nM |
| CCOC[C@@]1(O)CC[C@H]2[C@H](CC[C@@H]3[C@@H]2CC[C@]2(C)[C@@H](C(=O)Nc4cnc(C)cn4)CC[C@@H]32)C1 [Example 25] | < 100 nM |
| CCOC[C@@]1(O)CC[C@H]2[C@H](CC[C@@H]3[C@@H]2CC[C@]2(C)[C@@H](C(=O)Nc4nc(C)ccc4C)CC[C@@H]32)C1 [Example 59] | 100 to 1000 nM |
| COC[C@@]1(O)CC[C@@]2(C)[C@@H](CC[C@@H]3[C@@H]2CC[C@]2(C)[C@@H](C(=O)Nc4cccc(C)n4)CC[C@@H]32)C1 [Example 5, (3R,5S,8R,9S,10S,13S,14S,17S)-3-hydroxy-3-(methoxymethyl)-10,13-dimethyl-N-(6-methylpyridin-2-yl)hexadecahydro-1H-cyclopenta[a]phenanthrene-17-carboxamide] | < 100 nM |
| COC[C@@]1(O)CC[C@H]2[C@H](CC[C@@H]3[C@@H]2CC[C@]2(C)[C@@H](C(=O)Nc4ccc(C#N)nc4C)CC[C@@H]32)C1 [Example 41] | < 100 nM |
| CCOC[C@@]1(O)CC[C@@]2(COC(C)C)[C@H](CC[C@H]3[C@@H]4CC[C@H](C(=O)Nc5ccc(C#N)cn5)[C@@]4(C)CC[C@@H]32)C1 [Example 9, (3R,5R,8S,9S,10R,13S,14S,17S)-N-(5-cyanopyridin-2-yl)-3-(ethoxymethyl)-3-hydroxy-10-(isopropoxymethyl)-13-methylhexadecahydro-1H-cyclopenta[a]phenanthrene-17-carboxamide] | < 100 nM |
| CCOC[C@@]1(O)CC[C@H]2[C@H](CC[C@@H]3[C@@H]2CC[C@]2(C)[C@@H](C(=O)Nc4cc(C5CC5)nn4C)CC[C@@H]32)C1 [Example 56] | < 100 nM |

Source: patent US20220372067A1, “3.ALPHA.-HYDROXY-17.BETA.-AMIDE NEUROACTIVE STEROIDS AND COMPOSITIONS THEREOF” (SAGE THERAPEUTICS, INC., priority 2018, published 2022)
